Results from ChEMBL document CHEMBL4152332, “Discovery and synthesis of novel magnolol derivatives with potent anticancer activity in non-small cell lung cancer” (Eur J Med Chem, 2018).

Key:
Mus musculus [1] = test: Toxicity in Balb/c mouse xenografted with human NCI-H1975 cells assessed as change in body weight at 20 mg/kg, iv treated every 2 days for 9 days and measured every 2 days after compound dosing ( Rvb = 2.89%); assay type: organism-based; conditions: in vivo
NCI-H1975 [2] = test: Induction of apoptosis in human NCI-H1975 cells assessed as late apoptotic cells at 5 uM after 48 hrs by annexin V/FITC-propidium iodide staining-based flow cytometric method ( Rvb = 10.4%); assay type: functional
NCI-H1975 [3] = test: Cell cycle arrest in human NCI-H1975 cells assessed as accumulation at S phase at 10 uM after 24 hrs by propidium iodide staining-based flow cytometric analysis (reference value: 22.93%); assay type: functional
[4] = Antiproliferative activity against human SPC-A1 cells after 72 hrs by MTT assay; assay type: functional, cell-based; conditions: SPCA1, 72 h
NCI-H1975 [5] = test: Induction of apoptosis in human NCI-H1975 cells assessed as decrease in Cdk4 level after 24 hrs by Western blot analysis; assay type: functional, cell-based
NCI-H1975 [6] = test: Cell cycle arrest in human NCI-H1975 cells assessed as accumulation at G0/G1 phase at 20 uM after 24 hrs by propidium iodide staining-based flow cytometric analysis (reference value: 56.11%); assay type: functional
NCI-H1975 [7] = test: Antitumor activity against human NCI-H1975 cells xenografted in Balb/c mouse assessed as change in tumor mass at 5 mg/kg, iv treated every 2 days for 9 days and measured every 2 days after compound dosing relative to control; assay type: functional
Mus musculus [8] = test: Toxicity in Balb/c mouse xenografted with human NCI-H1975 cells assessed as effect on heart morphology at 5 to 20 mg/kg, iv treated every 2 days for 9 days; assay type: organism-based; conditions: in vivo
Mus musculus [9] = test: Toxicity in Balb/c mouse xenografted with human NCI-H1975 cells assessed as change in body weight at 100 mg/kg, po qd treated for 18 days and measured every 2 days after compound dosing ( Rvb = 2.89%); assay type: organism-based; conditions: in vivo
Mus musculus [10] = test: Toxicity in Balb/c mouse xenografted with human NCI-H1975 cells assessed as effect on lung morphology at 5 to 20 mg/kg, iv treated every 2 days for 9 days; assay type: organism-based; conditions: in vivo
NCI-H1975 [11] = test: Cell cycle arrest in human NCI-H1975 cells assessed as accumulation at G2/M phase at 10 uM after 24 hrs by propidium iodide staining-based flow cytometric analysis (reference value: 20.11%); assay type: functional
Mus musculus [12] = test: Toxicity in Balb/c mouse xenografted with human NCI-H1975 cells assessed as change in body weight at 10 mg/kg, po qd treated for 18 days and measured every 2 days after compound dosing ( Rvb = 2.89%); assay type: organism-based; conditions: in vivo
Mus musculus [13] = test: Toxicity in Balb/c mouse implanted with mouse C26 cells assessed as change in body weight at 100 mg/kg, po qd treated for 10 days and measured every 2 days (RVB = 16.4%); assay type: organism-based; conditions: in vivo
Mus musculus [14] = test: Toxicity in Balb/c mouse xenografted with human NCI-H1975 cells assessed as mouse death at 10 to 100 mg/kg, po qd treated for 18 days and measured every 2 days after compound dosing; assay type: organism-based; conditions: in vivo
NCI-H1975 [15] = test: Induction of apoptosis in human NCI-H1975 cells assessed as increase in cleaved PARP level after 48 hrs by Western blot analysis; assay type: functional, cell-based
NCI-H1975 [16] = test: Induction of apoptosis in human NCI-H1975 cells assessed as viable cells at 20 uM after 48 hrs by annexin V/FITC-propidium iodide staining-based flow cytometric method ( Rvb = 82.5%); assay type: functional; conditions: NCI-H1975, 48 h, read-out: Activity
NCI-H1975 [17] = test: Induction of apoptosis in human NCI-H1975 cells assessed as late apoptotic cells at 20 uM after 48 hrs by annexin V/FITC-propidium iodide staining-based flow cytometric method ( Rvb = 10.4%); assay type: functional
NCI-H1975 [18] = test: Induction of apoptosis in human NCI-H1975 cells assessed as necrotic cells at 10 uM after 48 hrs by annexin V/FITC-propidium iodide staining-based flow cytometric method ( Rvb = 1.01%); assay type: functional
NCI-H460 [19] = test: Antiproliferative activity against human H460 cells after 72 hrs by MTT assay; assay type: functional, cell-based; conditions: NCI-H460, 72 h
NCI-H1975 [20] = test: Antitumor activity against human NCI-H1975 cells xenografted in Balb/c mouse assessed as change in tumor mass at 100 mg/kg, po qd treated for 18 days and measured every 2 days after compound dosing relative to control; assay type: functional
HCC827 [21] = test: Potency index, ratio of IC50 for magnolol to IC50 for test compound for antiproliferative activity against human HCC827 cells after 72 hrs by MTT assay; assay type: functional
NCI-H460 [22] = test: Potency index, ratio of IC50 for honokiol to IC50 for test compound for antiproliferative activity against human H460 cells after 72 hrs by MTT assay; assay type: functional
NCI-H1975 [23] = test: Induction of apoptosis in human NCI-H1975 cells assessed as late apoptotic cells at 10 uM after 48 hrs by annexin V/FITC-propidium iodide staining-based flow cytometric method ( Rvb = 10.4%); assay type: functional
NCI-H1975 [24] = test: Induction of apoptosis in human NCI-H1975 cells after 48 hrs by annexin V/FITC-propidium iodide staining-based flow cytometric method; assay type: functional, cell-based
NCI-H460 [25] = test: Potency index, ratio of IC50 for magnolol to IC50 for test compound for antiproliferative activity against human H460 cells after 72 hrs by MTT assay; assay type: functional
HCC827 [26] = test: Potency index, ratio of IC50 for honokiol to IC50 for test compound for antiproliferative activity against human HCC827 cells after 72 hrs by MTT assay; assay type: functional
Mus musculus [27] = test: Toxicity in Balb/c mouse xenografted with human NCI-H1975 cells assessed as induction of vascular irritation at 5 to 20 mg/kg, iv treated every 2 days for 9 days; assay type: organism-based; conditions: in vivo
NCI-H1975 [28] = test: Induction of apoptosis in human NCI-H1975 cells assessed as necrotic cells at 5 uM after 48 hrs by annexin V/FITC-propidium iodide staining-based flow cytometric method ( Rvb = 1.01%); assay type: functional
Mus musculus [29] = test: Toxicity in Balb/c mouse xenografted with human NCI-H1975 cells assessed as effect on liver size at 5 to 20 mg/kg, iv treated every 2 days for 9 days; assay type: organism-based; conditions: in vivo
NCI-H1975 [30] = test: Antiproliferative activity against human NCI-H1975 cells after 72 hrs by MTT assay; assay type: functional, cell-based; conditions: NCI-H1975, 72 h
Mus musculus [31] = test: Toxicity in Balb/c mouse implanted with mouse C26 cells assessed as mouse death at 100 mg/kg, po qd treated for 10 days; assay type: organism-based; conditions: in vivo, 240 h
NCI-H1975 [32] = test: Induction of apoptosis in human NCI-H1975 cells assessed as early apoptotic cells at 5 uM after 48 hrs by annexin V/FITC-propidium iodide staining-based flow cytometric method ( Rvb = 6.09%); assay type: functional
NCI-H1650 = test: Antiproliferative activity against human NCI-H1650 cells after 72 hrs by MTT assay; assay type: functional, cell-based; conditions: NCI-H1650, 72 h
HCC827 [33] = test: Antiproliferative activity against human HCC827 cells after 72 hrs by MTT assay; assay type: functional, cell-based; conditions: HCC827, 72 h
NCI-H1975 [34] = test: Antitumor activity against human NCI-H1975 cells xenografted in Balb/c mouse assessed as change in tumor mass at 20 mg/kg, iv treated every 2 days for 9 days and measured every 2 days after compound dosing relative to control; assay type: functional
Mus musculus [35] = test: Toxicity in Balb/c mouse xenografted with human NCI-H1975 cells assessed as effect on kidney size at 5 to 20 mg/kg, iv treated every 2 days for 9 days; assay type: organism-based; conditions: in vivo

C=CCc1ccc(O)c(-c2cc(CC=C)cc(CN3CCC(N)CC3)c2O)c1
Activity (Mus musculus [1]): 8.23% | Activity (NCI-H1975 [2]): 26.3% | Activity (NCI-H1975 [3]): 18.57% | IC50 [4]: 7.89 µM | Activity (NCI-H1975 [5]): Dose-dependent effect | Activity (NCI-H1975 [6]): 79.45% | Activity (NCI-H1975 [7]): 49.2% | Activity (Mus musculus [8]): Non-Toxic | Activity (Mus musculus [9]): -5.72% | Activity (Mus musculus [10]): Non-Toxic | Activity (NCI-H1975 [11]): 12.73% | Activity (Mus musculus [12]): 13.3% | Activity (Mus musculus [13]): -9.3% | Activity (Mus musculus [14]): Non-Toxic | Activity (NCI-H1975 [15]): Dose-dependent effect | viability at 20 µM (NCI-H1975 [16]): 3.75% | Activity (NCI-H1975 [17]): 49.1% | Activity (NCI-H1975 [18]): 0.4% | IC50 (NCI-H460 [19]): 5.98 µM | Activity (NCI-H1975 [20]): 61.2% | Ratio IC50 (HCC827 [21]): 8 | Ratio IC50 (NCI-H460 [22]): 4 | Activity (NCI-H1975 [23]): 32.8% | Activity (NCI-H1975 [24]): Dose-dependent effect | Ratio IC50 (NCI-H460 [25]): 8 | Ratio IC50 (HCC827 [26]): 4 | Activity (Mus musculus [27]): Non-Toxic | Activity (NCI-H1975 [28]): 0.52% | Activity (Mus musculus [29]): Non-Toxic | IC50 (NCI-H1975 [30]): 5.61 µM | Activity (Mus musculus [31]): Non-Toxic | Activity (NCI-H1975 [32]): 6.68% | IC50 (NCI-H1650): 4.81 µM | IC50 (HCC827 [33]): 5.01 µM | Activity (NCI-H1975 [34]): 65.8% | Activity (Mus musculus [35]): Non-Toxic
